Experimental data reported in US9266878B2, “Phosphatidylinositol 3-kinase inhibitors” (Gilead Calistoga LLC, priority 2012, dated 2016).

Experiments:
Assay in all cases: Enzymatic activity of PI3K isoforms, TR-FRET assay (PIP3 formation)
Type in all cases: biochemical
PI3Kβ = PI3Kβ (Homo sapiens (Human), UniProt P42338)
Outline: (§1)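 IC50 (nM) reflects inhibition of PIP3 formation by purified recombinant heterodimeric PI3K, measured as loss of TR-FRET signal. The read-out comes from competition between enzyme-made PIP3 and labelled PIP3 for binding to the GRP-1 pleckstrin homology domain.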

PI3Kγ = PI3Kγ (Homo sapiens (Human), UniProt P48736)
Chain of PI3Kγ (P48736 whole entry): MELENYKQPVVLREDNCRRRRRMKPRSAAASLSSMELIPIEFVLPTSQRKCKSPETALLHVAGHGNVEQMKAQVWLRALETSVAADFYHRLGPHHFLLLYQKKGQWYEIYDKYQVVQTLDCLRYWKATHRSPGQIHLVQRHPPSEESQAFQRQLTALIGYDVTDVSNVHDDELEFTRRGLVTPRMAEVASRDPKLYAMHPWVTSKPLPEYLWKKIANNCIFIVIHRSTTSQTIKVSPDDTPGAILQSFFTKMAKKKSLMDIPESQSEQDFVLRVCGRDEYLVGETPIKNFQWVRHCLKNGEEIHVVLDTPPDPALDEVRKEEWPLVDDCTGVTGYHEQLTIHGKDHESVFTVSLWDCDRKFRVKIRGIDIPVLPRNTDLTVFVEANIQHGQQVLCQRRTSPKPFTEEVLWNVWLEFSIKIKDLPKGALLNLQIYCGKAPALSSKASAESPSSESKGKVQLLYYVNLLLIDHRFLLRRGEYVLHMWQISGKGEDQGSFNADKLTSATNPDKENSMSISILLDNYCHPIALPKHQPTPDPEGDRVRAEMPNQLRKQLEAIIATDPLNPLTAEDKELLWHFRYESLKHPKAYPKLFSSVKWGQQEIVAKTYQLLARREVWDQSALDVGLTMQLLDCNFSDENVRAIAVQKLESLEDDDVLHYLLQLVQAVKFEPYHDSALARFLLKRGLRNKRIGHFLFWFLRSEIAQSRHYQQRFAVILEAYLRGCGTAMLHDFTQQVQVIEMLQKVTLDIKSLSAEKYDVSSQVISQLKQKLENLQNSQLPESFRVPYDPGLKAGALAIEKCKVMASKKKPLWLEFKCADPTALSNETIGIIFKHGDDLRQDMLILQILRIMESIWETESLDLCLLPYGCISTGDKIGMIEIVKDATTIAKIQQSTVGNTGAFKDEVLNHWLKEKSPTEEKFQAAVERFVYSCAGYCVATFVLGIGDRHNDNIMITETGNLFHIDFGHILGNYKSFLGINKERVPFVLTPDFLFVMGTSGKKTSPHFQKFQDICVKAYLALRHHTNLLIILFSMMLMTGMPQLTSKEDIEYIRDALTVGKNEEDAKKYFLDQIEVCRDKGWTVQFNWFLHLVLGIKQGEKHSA
Chain of PI3Kγ (Q8WYR1 whole entry partner): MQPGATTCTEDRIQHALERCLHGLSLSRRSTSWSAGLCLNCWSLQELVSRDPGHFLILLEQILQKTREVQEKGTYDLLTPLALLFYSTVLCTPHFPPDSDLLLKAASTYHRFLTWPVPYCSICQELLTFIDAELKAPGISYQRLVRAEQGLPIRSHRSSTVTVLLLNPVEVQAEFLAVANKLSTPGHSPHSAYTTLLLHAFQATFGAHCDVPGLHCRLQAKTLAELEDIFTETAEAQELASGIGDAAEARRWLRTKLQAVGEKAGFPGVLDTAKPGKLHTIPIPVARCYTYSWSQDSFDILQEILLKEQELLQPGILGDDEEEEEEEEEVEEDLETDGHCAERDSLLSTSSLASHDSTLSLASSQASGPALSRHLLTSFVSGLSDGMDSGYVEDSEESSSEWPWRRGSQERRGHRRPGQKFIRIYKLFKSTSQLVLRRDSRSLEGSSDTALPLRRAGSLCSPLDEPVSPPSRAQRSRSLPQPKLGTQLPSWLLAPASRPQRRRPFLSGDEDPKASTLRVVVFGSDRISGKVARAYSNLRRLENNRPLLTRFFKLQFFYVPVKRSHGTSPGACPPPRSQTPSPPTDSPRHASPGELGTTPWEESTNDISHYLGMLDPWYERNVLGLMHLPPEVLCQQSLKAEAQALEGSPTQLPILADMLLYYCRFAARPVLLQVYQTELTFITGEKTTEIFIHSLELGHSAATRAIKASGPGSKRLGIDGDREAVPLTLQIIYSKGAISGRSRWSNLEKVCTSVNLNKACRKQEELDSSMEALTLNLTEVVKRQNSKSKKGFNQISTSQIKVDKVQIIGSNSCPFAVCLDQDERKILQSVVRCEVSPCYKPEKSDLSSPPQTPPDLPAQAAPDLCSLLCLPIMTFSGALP
Outline: as §1

PI3Kδ = PI3Kδ (Homo sapiens (Human), UniProt O00329)
Outline: (§2)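 After 30 min at 25° C, reactions were quenched with 10 mM EDTA plus 10 nM labeled-PIP3 and 35 nM Europium-GRP-1, and TR-FRET was read (Ex 340, Em 615/665 nm). Enzymes were purified recombinant heterodimers; product PIP3 competes off the labeled tracer. Values given as IC50, nM.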

PI3Kα = PI3Kα (Homo sapiens (Human), UniProt P42336)
Chain of PI3Kα (P42336 whole entry): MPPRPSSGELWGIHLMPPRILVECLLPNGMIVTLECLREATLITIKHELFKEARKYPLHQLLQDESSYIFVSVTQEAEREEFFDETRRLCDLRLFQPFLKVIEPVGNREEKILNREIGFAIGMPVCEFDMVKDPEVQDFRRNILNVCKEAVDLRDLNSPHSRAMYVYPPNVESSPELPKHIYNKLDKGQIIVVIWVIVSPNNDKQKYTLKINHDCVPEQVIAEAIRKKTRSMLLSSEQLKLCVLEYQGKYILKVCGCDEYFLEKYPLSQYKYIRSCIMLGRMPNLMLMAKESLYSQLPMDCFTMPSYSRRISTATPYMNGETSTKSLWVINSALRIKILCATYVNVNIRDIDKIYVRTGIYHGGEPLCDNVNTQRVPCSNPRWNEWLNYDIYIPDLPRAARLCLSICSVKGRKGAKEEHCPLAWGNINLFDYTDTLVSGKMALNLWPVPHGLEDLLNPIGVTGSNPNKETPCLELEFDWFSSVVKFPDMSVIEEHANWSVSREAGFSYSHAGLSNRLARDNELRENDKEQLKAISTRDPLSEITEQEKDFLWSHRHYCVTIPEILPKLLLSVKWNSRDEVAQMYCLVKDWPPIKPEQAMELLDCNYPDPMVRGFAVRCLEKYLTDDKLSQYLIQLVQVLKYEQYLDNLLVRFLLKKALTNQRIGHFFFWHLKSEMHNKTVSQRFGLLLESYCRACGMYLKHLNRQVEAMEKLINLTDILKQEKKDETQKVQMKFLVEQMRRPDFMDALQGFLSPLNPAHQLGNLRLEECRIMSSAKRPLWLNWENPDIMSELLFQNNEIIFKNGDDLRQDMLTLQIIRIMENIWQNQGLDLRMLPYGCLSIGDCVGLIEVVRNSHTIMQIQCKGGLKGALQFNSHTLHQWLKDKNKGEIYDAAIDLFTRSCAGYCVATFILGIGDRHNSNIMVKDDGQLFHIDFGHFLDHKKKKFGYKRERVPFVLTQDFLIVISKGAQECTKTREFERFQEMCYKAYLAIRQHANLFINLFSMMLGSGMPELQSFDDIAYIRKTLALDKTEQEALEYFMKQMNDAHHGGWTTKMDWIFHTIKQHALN
Chain of PI3Kα (P27986 whole entry partner): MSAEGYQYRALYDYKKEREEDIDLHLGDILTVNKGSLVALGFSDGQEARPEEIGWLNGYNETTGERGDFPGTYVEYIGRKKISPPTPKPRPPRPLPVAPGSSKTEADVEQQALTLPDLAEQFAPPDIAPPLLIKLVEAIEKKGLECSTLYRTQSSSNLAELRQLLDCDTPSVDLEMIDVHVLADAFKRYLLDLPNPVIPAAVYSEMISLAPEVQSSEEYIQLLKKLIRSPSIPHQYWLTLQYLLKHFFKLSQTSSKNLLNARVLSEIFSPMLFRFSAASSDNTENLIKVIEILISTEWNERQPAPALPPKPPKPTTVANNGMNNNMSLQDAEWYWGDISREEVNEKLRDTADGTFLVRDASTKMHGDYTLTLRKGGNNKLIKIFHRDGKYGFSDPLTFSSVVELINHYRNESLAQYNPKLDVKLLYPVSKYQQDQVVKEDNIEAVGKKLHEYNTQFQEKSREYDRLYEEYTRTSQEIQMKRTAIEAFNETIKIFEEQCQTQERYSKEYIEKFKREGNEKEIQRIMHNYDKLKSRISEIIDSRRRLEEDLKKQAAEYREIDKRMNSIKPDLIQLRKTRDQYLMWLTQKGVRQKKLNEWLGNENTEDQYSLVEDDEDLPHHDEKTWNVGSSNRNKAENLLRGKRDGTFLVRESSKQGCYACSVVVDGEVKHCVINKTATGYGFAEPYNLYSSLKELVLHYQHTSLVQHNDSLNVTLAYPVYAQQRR
Outline: as §2

Chain of PI3Kβ (P42338 whole entry, the tested form may be a part): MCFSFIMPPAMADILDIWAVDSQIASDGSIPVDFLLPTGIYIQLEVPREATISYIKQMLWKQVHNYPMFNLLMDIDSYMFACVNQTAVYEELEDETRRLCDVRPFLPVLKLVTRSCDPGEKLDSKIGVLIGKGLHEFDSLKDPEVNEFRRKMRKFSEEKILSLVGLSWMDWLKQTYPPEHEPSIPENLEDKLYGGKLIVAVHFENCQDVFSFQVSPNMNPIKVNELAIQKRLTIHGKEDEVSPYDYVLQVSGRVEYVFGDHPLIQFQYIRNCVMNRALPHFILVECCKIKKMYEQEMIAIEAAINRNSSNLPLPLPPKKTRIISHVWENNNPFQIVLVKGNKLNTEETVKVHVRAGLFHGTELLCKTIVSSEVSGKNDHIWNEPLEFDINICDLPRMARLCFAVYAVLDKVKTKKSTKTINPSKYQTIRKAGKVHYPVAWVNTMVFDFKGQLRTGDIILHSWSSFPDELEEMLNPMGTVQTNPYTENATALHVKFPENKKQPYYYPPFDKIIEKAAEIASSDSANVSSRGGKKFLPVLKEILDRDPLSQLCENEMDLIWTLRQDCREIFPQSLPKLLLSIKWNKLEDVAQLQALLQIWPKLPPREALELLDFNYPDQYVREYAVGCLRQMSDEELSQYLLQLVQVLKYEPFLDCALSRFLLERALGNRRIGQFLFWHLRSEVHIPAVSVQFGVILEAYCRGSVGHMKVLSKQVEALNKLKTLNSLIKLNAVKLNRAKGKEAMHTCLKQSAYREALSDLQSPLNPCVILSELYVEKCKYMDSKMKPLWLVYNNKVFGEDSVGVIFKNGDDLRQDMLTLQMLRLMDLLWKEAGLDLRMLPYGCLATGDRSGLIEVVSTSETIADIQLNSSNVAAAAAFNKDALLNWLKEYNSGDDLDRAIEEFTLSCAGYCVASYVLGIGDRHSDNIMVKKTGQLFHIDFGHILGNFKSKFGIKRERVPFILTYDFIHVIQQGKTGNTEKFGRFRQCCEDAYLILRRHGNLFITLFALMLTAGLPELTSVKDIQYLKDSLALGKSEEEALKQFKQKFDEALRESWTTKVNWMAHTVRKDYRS
Chain of PI3Kβ (P27986 whole entry partner, the tested form may be a part): as the sequence (P27986 whole entry partner) above

IC50 (PI3Kβ; bound given in uM) [µM]	IC50 (PI3Kγ; bound given in uM) [µM]	IC50 (PI3Kδ; bound given in nM) [nM]	IC50 (PI3Kα; bound given in uM) [µM]	IC50 (PI3Kβ; bound given in nM) [µM]	IC50 (PI3Kγ; bound given in nM) [µM]	IC50 (PI3Kα; bound given in nM) [µM]	IC50 (PI3Kδ; bound given in uM) [nM]	Structure (SMILES)
> 1	> 1	< 100	> 1	–	–	–	–	C[C@H](Nc1ncnc(N)c1C#Cc1cccc(CN)n1)c1nc2cccc(Cl)c2c(=O)n1-c1ccccc1 [Compound 159a, (S)-2-(1-((6-amino-5-((6-(aminomethyl)pyridin-2-yl)ethynyl)pyrimidin-4-yl)amino)ethyl)-5-chloro-3-phenylquinazolin-4(3H)-one]
–	–	< 100	–	< 0.1	< 0.1	< 0.1	–	CC(=O)c1cccc(C#Cc2c(N)ncnc2N[C@@H](C)c2nc3cccc(Cl)c3c(=O)n2-c2ccccc2)c1 [Compound 161a, (S)-2-(1-((5-((3-acetylphenyl)ethynyl)-6-aminopyrimidin-4-yl)amino)ethyl)-5-chloro-3-phenylquinazolin-4(3H)-one]
> 1	> 1	–	> 1	–	–	–	> 1000	C[C@H](Nc1ncnc(N)c1C#Cc1ncccc1CO)c1nc2cccc(Cl)c2c(=O)n1-c1ccccc1 [Compound 163a, (S)-2-(1-((6-amino-5-((3-(hydroxymethyl)pyridin-2-yl)ethynyl)pyrimidin-4-yl)amino)ethyl)-5-chloro-3-phenylquinazolin-4(3H)-one]
